Experimental data taken from ChEMBL document CHEMBL1201862, “PubChem BioAssay data set” (2004).
Active and inactive are the calls of the source.

Tests used:
Cytochrome P450 1A2 = biological target: T1, Cytochrome P450 1A2 (Homo sapiens, UniProt P05177);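 note: PubChem cytochrome P450 panel assay, CYP1A2 panel member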
T1 sequence (P05177 whole entry): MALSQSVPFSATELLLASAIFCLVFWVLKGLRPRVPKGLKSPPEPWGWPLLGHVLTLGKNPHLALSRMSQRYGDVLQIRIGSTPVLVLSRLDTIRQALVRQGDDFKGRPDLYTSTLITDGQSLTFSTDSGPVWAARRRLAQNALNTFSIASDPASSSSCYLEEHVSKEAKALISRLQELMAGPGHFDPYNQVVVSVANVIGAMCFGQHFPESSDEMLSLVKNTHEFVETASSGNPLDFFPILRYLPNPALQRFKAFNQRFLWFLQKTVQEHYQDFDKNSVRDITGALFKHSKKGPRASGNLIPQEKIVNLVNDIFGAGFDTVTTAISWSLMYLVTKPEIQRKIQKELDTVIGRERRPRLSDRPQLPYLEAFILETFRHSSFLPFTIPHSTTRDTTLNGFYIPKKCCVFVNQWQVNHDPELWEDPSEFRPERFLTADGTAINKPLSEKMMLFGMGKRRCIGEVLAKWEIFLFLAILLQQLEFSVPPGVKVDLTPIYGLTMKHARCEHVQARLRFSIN

Cytochrome P450 2C19 = Cytochrome P450 2C19 (Homo sapiens, UniProt P33261); assay: Cytochrome panel assay with activity outcomes. Panel member name: p450-cyp2c19 Compounds with AC50 equal or less than 10 uM are considered active; format: functional
[1] = Luminescence Cell-Based Dose Retest to Confirm Inhibitors of Cancer Stem Cells. [Related pubchem assays (depositor defined):AID2717, AID2721]; format: functional; conditions: Homo sapiens
H9c2 = assay: cells; format: functional, cell-based; conditions: Rattus norvegicus, H9c2, Myocardium;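 note: confirmatory concentration-response retest of ultra-high-throughput screening hits for modulation of myocardial damage; cell death induced by hydrogen peroxide oxidative stress; compound pretreatment for 60 min then peroxide exposure for 2 h; potency is for protecting the cells against peroxide damage rather than for killing them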
[2] = inhibitors of intracellular T. cruzi replication, confirmation, NIH3T3 host cells, beta-gal luminescence (AID 2044); format: functional, cell-based;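 note: intracellular parasites grown in NIH/3T3 mouse fibroblasts as host cells; luminescent beta-galactosidase reporter signal from transgenic T. cruzi replicating inside host cells; inhibitors lower the luminescence signal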
[3] = cytotoxicity toward NIH3T3 fibroblasts, dose response, counter-screen, cell-based, ATP luminescence, mouse fibroblasts (AID 2010); format: functional;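 note: cells exposed to compound for about 90 hours before reading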
[4] = HEp-2 cell cytotoxicity, dose response, cytotoxicity control for RSV inhibitor project, HTS (AID 2410); format: functional; conditions: human respiratory syncytial virus
[5] = biological target: T2, Corticotropin-releasing factor receptor 2/Corticotropin-releasing factor-binding protein (Homo sapiens, UniProt P24387+Q13324); assay: activators of CRF receptor 2 with binding protein – uHTS hits, confirmation (AID 602473); format: functional; conditions: read-out: EC50_Mean
T2 sequence (Q13324 whole entry): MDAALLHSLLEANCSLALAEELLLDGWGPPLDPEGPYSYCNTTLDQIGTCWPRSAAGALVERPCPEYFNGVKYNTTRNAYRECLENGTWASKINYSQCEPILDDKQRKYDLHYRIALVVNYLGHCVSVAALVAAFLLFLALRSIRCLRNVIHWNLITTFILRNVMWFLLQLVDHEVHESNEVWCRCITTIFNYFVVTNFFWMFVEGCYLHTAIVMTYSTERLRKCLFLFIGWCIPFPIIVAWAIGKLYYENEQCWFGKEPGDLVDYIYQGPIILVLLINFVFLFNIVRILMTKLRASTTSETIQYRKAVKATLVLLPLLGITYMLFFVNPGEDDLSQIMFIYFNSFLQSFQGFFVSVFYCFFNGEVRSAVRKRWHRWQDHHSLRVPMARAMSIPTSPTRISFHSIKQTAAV
T2 sequence (P24387 whole entry): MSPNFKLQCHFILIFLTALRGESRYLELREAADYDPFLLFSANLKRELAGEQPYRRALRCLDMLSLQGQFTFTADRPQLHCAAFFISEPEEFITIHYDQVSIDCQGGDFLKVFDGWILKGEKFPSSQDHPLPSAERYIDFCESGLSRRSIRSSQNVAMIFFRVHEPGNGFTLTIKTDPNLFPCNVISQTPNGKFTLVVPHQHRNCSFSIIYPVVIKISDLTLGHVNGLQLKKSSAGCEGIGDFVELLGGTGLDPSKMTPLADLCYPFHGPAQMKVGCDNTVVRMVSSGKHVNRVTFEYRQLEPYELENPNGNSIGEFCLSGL

H4 = assay: Luminescence Cell-Based Dose Response HTS to Identify Activators of 5'UTR Stem-Loop Driven Prion Protein mRNA Translation in H4 Neuroglioblastoma Cells. [Related pubchem assays: 1829 (Project Summary), 1814 (Primary HTS)]; format: functional; conditions: Homo sapiens
[6] = Luminescence Cell-Based Dose Response HTS to Identify Activators of Luciferase Translation or Activity in H4 […] Cells. [Related pubchem assays: 1829 (Project Summary), 1814 (Primary HTS)]; format: functional
[7] = test system: Streptococcus sp. 'group A'; assay: growth inhibition of control SK(-) GAS strain, dose response, counter-screen for streptokinase expression inhibitor project, luminescence, kanamycin, BacTiterGlo, confirmation (AID 1900); format: functional, organism-based
Streptokinase A = biological target: T3, Streptokinase A (Streptococcus pyogenes serotype M1, UniProt P10520); assay: S. pyogenes streptokinase expression inhibitors, potency, dose response, plasminogen activation absorbance, OD405 (AID 1914); format: functional, Streptococcus pyogenes M1 GAS;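 note: secreted streptokinase activity via plasminogen activation per viability signal from cell pellet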
T3 sequence (P10520 whole entry): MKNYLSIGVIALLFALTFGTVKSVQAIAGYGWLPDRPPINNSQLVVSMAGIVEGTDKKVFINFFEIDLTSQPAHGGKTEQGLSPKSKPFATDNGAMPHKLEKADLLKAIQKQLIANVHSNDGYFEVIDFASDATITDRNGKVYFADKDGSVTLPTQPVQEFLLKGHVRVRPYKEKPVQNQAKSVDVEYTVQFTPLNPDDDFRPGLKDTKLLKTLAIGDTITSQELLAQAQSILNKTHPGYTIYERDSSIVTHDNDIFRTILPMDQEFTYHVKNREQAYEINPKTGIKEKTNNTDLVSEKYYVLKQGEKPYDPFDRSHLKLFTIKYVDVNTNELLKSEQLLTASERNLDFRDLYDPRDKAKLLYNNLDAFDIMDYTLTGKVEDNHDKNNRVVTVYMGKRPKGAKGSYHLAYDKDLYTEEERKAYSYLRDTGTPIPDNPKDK

Streptococcus = assay: Group A Streptococcus viability loss, dose response, counter-screen for streptokinase expression inhibitor project, luminescence, BacTiterGlo (AID 1915); format: functional, organism-based;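 note: potency for reduction of bacterial viability or growth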
Cytochrome P450 2D6 = Cytochrome P450 2D6 (Homo sapiens, UniProt P10635);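 note: CYP2D6 member of a cytochrome P450 panel assay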
Paired box protein Pax-8 = Paired box protein Pax-8 (Homo sapiens, UniProt Q06710); assay: inhibitors of PAX8-driven TPO luciferase reporter, dose response, RMG-I cells, cherry-pick (AID 687027); format: functional, cell-based;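 note: luciferase reporter driven by Pax8 target thyroperoxidase promoter measured by SteadyGlo luminescence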
Paired box protein Pax-8, sequence (Q06710 whole entry): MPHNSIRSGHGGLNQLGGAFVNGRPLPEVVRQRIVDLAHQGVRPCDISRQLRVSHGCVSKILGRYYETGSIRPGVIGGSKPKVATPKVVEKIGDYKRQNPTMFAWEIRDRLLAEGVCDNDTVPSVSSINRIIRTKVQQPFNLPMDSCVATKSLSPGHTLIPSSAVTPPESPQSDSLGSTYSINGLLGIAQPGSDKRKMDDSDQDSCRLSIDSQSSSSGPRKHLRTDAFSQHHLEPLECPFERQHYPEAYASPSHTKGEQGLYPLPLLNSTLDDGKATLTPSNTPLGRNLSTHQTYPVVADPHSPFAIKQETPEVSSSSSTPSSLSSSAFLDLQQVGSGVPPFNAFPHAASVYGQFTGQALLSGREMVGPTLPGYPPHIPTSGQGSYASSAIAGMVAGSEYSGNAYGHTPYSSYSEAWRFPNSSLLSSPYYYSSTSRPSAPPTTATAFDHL

Cytochrome P450 2C19, sequence (P33261 whole entry): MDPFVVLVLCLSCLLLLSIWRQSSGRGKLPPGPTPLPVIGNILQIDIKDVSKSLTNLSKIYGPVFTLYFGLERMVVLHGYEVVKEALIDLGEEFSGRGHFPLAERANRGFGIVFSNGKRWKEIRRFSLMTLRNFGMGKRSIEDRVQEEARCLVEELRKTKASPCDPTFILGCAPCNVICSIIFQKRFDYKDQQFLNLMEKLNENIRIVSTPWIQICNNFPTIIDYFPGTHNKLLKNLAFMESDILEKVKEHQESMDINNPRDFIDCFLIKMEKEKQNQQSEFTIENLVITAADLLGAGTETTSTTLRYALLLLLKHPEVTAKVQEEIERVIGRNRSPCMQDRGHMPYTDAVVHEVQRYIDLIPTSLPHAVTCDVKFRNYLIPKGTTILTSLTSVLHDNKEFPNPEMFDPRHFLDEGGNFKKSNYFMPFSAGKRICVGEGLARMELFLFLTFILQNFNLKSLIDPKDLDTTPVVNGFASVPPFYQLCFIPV
Cytochrome P450 2D6, sequence (P10635 whole entry): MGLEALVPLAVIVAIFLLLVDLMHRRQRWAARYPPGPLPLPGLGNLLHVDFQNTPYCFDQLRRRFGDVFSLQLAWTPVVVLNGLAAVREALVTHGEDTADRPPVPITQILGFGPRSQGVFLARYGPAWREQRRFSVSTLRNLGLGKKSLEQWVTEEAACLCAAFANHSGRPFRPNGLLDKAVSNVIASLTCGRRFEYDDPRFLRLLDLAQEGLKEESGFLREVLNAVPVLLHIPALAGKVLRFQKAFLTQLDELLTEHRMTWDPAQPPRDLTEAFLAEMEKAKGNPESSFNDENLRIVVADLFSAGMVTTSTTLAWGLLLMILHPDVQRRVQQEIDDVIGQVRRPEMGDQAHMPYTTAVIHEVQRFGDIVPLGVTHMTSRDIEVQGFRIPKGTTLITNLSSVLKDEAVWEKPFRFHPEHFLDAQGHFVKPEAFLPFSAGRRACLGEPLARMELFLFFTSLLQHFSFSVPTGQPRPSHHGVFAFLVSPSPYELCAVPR

COc1ccc(C(=O)N2CCC[C@@]3(CCN(Cc4ccccc4)C3)C2)cc1
AC50 (Cytochrome P450 1A2): 12.6 µM (inconclusive)

Cc1cnc(CNc2cc(-c3ccoc3)ncn2)cn1
AC50 (Cytochrome P450 1A2): 25.1 µM (inconclusive)

CCN(CCCNC(=O)C1CCN(S(=O)(=O)CC)CC1)c1cccc(C)c1
AC50 (Cytochrome P450 1A2): 31.6 µM (inconclusive)
AC50 (Cytochrome P450 2C19; read-out: AC50): 39.8 µM (inconclusive)

O=c1c(Cl)c(NCc2ccc(F)cc2)cnn1C12CC3CC(CC(C3)C1)C2
AC50 [1]: 0.913 µM (active)

O=C(c1cc(-c2cccnc2)nc2ccc(Br)cc12)N1CCN(c2ncccn2)CC1
IC50 (H9c2): > 79 µM (inactive)

COCCn1c(=O)c(-c2ccc(Cl)cc2)nc2cnc(N3CCOCC3)nc21
AC50 (Cytochrome P450 1A2): 1 µM (inconclusive)

COc1ccc(-c2oc3c4c(cc(OC)c3c(=O)c2CC=C(C)C)OC(C)(C)C=C4)c(OC)c1
EC50 [2]: 2.08 µM (active)
EC50 [3]: > 60 µM (not active)
AC50 [1]: 6.2 µM (active)

c1cc2cc(-c3c(-c4ccc5c(c4)OCO5)noc3-c3ccsc3)ccc2[nH]1
CC50 [4]: 44.8 µM (active)
AC50 [1]: 1.69 µM (active)

COC(=O)[C@@H]1[C@@H]2C[C@H]3c4[nH]c5cc(OC)ccc5c4CCN3C[C@@H]2C[C@H](OC(=O)c2cc(OC)c(OC)c(OC)c2)[C@H]1OC
AC50 (Cytochrome P450 1A2): 15.8 µM (inconclusive)

COc1ccc(CN(C(=O)c2nsc(Cl)c2Cl)C(C(=O)NC2CCCC2)c2ccc(OC)cc2)cc1 (configuration not stated)
EC50 [5]: > 53 µM (inactive)

CC#CC(=O)N1CCC(C(=O)Nc2ccc(Oc3ccccc3)nc2)CC1
EC50 (H4): 73 µM (active)
EC50 [6]: 25.4 µM (active)

CC(=O)Nc1ccc(-c2csc(NC(=O)CCCc3cccs3)n2)cc1
AC50 [1]: 7.57 µM (active)

COC(=O)c1cc(NC(=O)c2cc3ccccc3o2)cc(C(=O)OC)c1
IC50 (H9c2): > 79 µM (inactive)

Cn1cccc1C(=O)N1CCC2(CCCN(c3ccccc3)C2)CC1
AC50 (Cytochrome P450 1A2): 10 µM (inconclusive)

COc1ccc(C(=O)COC(=O)Cc2nnc(O)c3ccccc23)c(OC)c1
IC50 (H9c2): > 79 µM (inactive)

CCCCNc1c(-c2ccc(OC)c(SC3CCCCC3)c2)nc2cc(C)ccn12
EC50 [7]: 3.09 µM (active)
EC50 (Streptokinase A): 9.9 µM (active)
AC50 [1]: 4.36 µM (active)
EC50 (Streptococcus): 10.1 µM (active)

Cc1ccc(-n2nnnc2C(=Cc2ccc(N(C)C)cc2)c2nnnn2-c2ccc(C)cc2)cc1
AC50 (Cytochrome P450 1A2): 12.6 µM (inconclusive)
AC50 (Cytochrome P450 2D6): 15.8 µM (inconclusive)

CC(C)(C)C1COc2ccccc2N1C(=O)c1ccccc1Cl (configuration not stated)
EC50 [5]: 11.3 µM (active)

CCCN1CCc2c(sc(NC(=O)c3ccc(S(=O)(=O)N(C)c4ccccc4)cc3)c2C(N)=O)C1
EC50 [5]: 4.43 µM (active)

COc1ccc(/C=C(\C#N)C(=O)c2c(C)[nH]c3ccccc23)cc1OC
IC50 (H9c2): > 79 µM (inactive)

Oc1nc2cc(F)ccc2c2ccc(F)cc12
IC50 (H9c2): > 79 µM (inactive)

CCN(CC)C(=O)c1ccc(-c2nnc(Nc3ccc(O)cc3)c3ccccc23)cc1
IC50 (H9c2): 14.2 µM (active)

O=C(O)[C@@H]1CCCN1Cc1cc2ccccc2c2ccccc12
AC50 (Cytochrome P450 1A2): 6.31 µM (inconclusive)

CC(C)(C)OC(=O)NCCCCCNC(=O)c1[nH]cnc1C(=O)Nc1cc(Br)ccc1F
IC50 (H9c2): > 79 µM (inactive)

CC(=O)c1ccc(-c2cnc3c(NC=O)cc(-c4cccc(C(=O)N(C)C)c4)cn23)cc1
IC50 (H9c2): 11.2 µM (active)

Cc1nn(-c2ccccc2)c(C)c1/C=N/NC(=O)c1cc(C(C)(C)C)[nH]n1
IC50 (H9c2): 12.2 µM (active)

O=C(N/N=C\c1ccccn1)C1COc2cc3ccccc3cc2O1 (configuration not stated)
IC50 (H9c2): > 79 µM (inactive)

Cc1ccc(S(=O)(=O)N(C)C[C@H]2Oc3c(NC(=O)Nc4ccc(F)cc4)cccc3C(=O)N([C@@H](C)CO)C[C@H]2C)cc1
AC50 (Paired box protein Pax-8): 11.5 µM (active)

N=C(N/N=C\c1ccc(Br)cc1)N/N=C\c1ccc(Br)cc1
EC50 [7]: 2.39 µM (active)
AC50 [1]: 3.04 µM (active)
EC50 (Streptococcus): 5.33 µM (active)

CN(C(=O)CCCOc1ccc2[nH]c(=O)ccc2c1)C1CCCCC1 [CILOSTAMIDE]
AC50 (Cytochrome P450 1A2): 31.6 µM (inconclusive)
AC50 (Cytochrome P450 2C19): inconclusive
